≈ marks a conversion by molar mass, not a printed value.
Assays:
[1] = system: Streptococcus pneumoniae Felton; test: Mouse i.p. infection model (septicemia), survival; format: in vivo; conditions: mice; for Survivors (%) / Survivors/total: twice
Experimental: Mouse i.p. infection model. Staphylococcus aureus Smith was grown in veal infusion broth and each mouse was infected intraperitoneally with 10^6 colony-forming units (CFU), diluted in broth containing 5% (w/v) Difco bacteriological mucin. Streptococcus pneumoniae Felton strain was grown in Difco Brain Heart Infusion broth (BHI) and each mouse was infected intraperitoneally with 10^3 CFU, diluted in BHI. Mice were divided into groups of 5. […] Other groups of mice received different dosages of nisin. Nisin was administered either intravenously (via the tail vein in. 0.1 ml of 5% dextrose for injection) or subcutaneously (in 0.2 ml). Two injections were given to each mouse, the first within 10 minutes after infection and the second after 5 hours. […] Different dosages of vancomycin or penicillin were administered i.v. in 0.1 ml of 5% glucose for injection.

S. pneumoniae = conditions: strain of S. pneumoniae used; reported by Goldstein et al.; cited from earlier work

| SMILES | Efficacy compared with the other agents (in words) ([1]; i.v.) | Survivors (%) ([1]; i.v., 0.5 mg/kg/dose) | Survivors/total ([1]; i.v., 0.5 mg/kg/dose) | Survivors (%) ([1]; i.v., 1 mg/kg/dose) | Survivors/total ([1]; i.v., 1 mg/kg/dose) | Survivors (%) ([1]; i.v., 2 mg/kg/dose) | Survivors/total ([1]; i.v., 2 mg/kg/dose) | Survivors (%) ([1]; i.v., 4 mg/kg/dose) | Survivors/total ([1]; i.v., 4 mg/kg/dose) | Survivors (%) ([1]; i.v., 8 mg/kg/dose) | Survivors/total ([1]; i.v., 8 mg/kg/dose) | Survivors (%) ([1]; i.v., 16 mg/kg/dose) | Survivors/total ([1]; i.v., 16 mg/kg/dose) | MIC (S. pneumoniae) [µg/mL] | Survivors (%) ([1]; i.v., 32 mg/kg/dose) | Survivors/total ([1]; i.v., 32 mg/kg/dose) | Survivors (%) ([1]; s.c., 2 mg/kg/dose) | Survivors/total ([1]; s.c., 2 mg/kg/dose) | Survivors (%) ([1]; s.c., 4 mg/kg/dose) | Survivors/total ([1]; s.c., 4 mg/kg/dose) |
| --- | --- | --- | --- | --- | --- | --- | --- | --- | --- | --- | --- | --- | --- | --- | --- | --- | --- | --- | --- | --- |
| CC1(C)S[C@@H]2[C@H](NC(=O)Cc3ccccc3)C(=O)N2[C@H]1C(=O)O [penicillin] | less efficacious than nisin | 0 | 0/5 | 20 | 1/5 | 20 | 1/5 | 60 | 3/5 | 20 | 1/5 | 80 | 4/5 | 0.016 (≈ 0.0478 µM) |  |  |  |  |  |  |
| CN[C@H](CC(C)C)C(=O)N[C@H]1C(=O)N[C@@H](CC(N)=O)C(=O)N[C@H]2C(=O)N[C@H]3C(=O)N[C@H](C(=O)N[C@H](C(=O)O)c4cc(O)cc(O)c4-c4cc3ccc4O)[C@H](O)c3ccc(c(Cl)c3)Oc3cc2cc(c3O[C@@H]2O[C@H](CO)[C@@H](O)[C@H](O)[C@H]2O[C@H]2C[C@](C)(N)[C@H](O)[C@H](C)O2)Oc2ccc(cc2Cl)[C@H]1O [vancomycin] | less efficacious than nisin |  |  | 40 | 2/5 | 60 | 3/5 | 80 | 4/5 | 100 | 5/5 | 100 | 5/5 |  | 100 | 5/5 | 60 | 3/5 | 60 | 3/5 |

— US5910479A, “Method for the treatment of Streptococcus pneumoniae infection” (priority 1996, dated 1999)
